In patent publication US12319663B2, “Alkene-containing amide compound and application thereof” (SHENYANG SINOCHEM AGROCHEMICALS R&D CO., LTD., priority 2019, dated 2025):

Columns and labels:
Type in all cases: in vivo
zinnia = experiment: Herbicidal activity, post-emergence stem and leaf spray, greenhouse: zinnia control; settings: visual, 0 = no control effect, 100% = complete killing
Method: (§1) Seeds of broadleaf weeds (zinnia and piemarker) or grassy weeds (green bristlegrass and barnyard grass) are respectively sown in a paper cup having a diameter of 7 cm and containing nutrient soil; after sowing, the seeds are covered with 1 cm of soil; the soil is pressed and watered, and then the seeds are cultivated in a greenhouse according to a conventional method; and stems and leaves are sprayed after 2-3 leaf stage of the weeds.
(§2) After the original medicinal acetone was dissolved, the test requires to use 1% of Tween 80 to stand in running water to prepare the solution to be tested with a required concentration. According to the design dose of the test, spray treatment was carried out on a track-type crop sprayer (designed and produced by British Engineer Research Ltd.) (spray pressure is 1.95 kg/cm^2, spray volume is 50 L/hm^2 and track speed is 1.48 km/h). The test was repeated for three times. The test material was treated and then placed in an operation hall. The medicinal liquid was naturally dried in the shade, and then was placed in a greenhouse and managed according to the conventional method, The response of the weeds to the drug was observed and recorded, After treatment, the control effects of the test drug on the weeds were visually inspected regularly, expressed by 0-100%. “0” represents no control effect and “100%” represents complete killing.
According to the above test method, part of the compounds of the formula I and KC are selected for activity test of controlling the zinnia.

piemarker = experiment: Herbicidal activity, post-emergence stem and leaf spray, greenhouse: piemarker control
Method: as §1, §2
According to the above test method, part of the compounds of the formula I and KC are selected for activity test of controlling the piemarker. […]

barnyard grass = experiment: Herbicidal activity, post-emergence stem and leaf spray, greenhouse: barnyard grass control
Method: as §1, §2
According to the above test method, part of the compounds of the formula I and KC are selected for the activity test of controlling the barnyard grass.

green bristlegrass = experiment: Herbicidal activity, post-emergence stem and leaf spray, greenhouse: green bristlegrass control
Method: as §1, §2
According to the above test method, part of the compounds of the formula I and KC are selected for the activity test of controlling the green bristlegrass.

[1] = dose 37.5 g a.i./hm2, post-emergence stem and leaf spray
[2] = dose 150 g a.i./hm2, post-emergence stem and leaf spray
[3] = dose 600 g a.i./hm2, post-emergence stem and leaf spray

| Structure (SMILES) | Zinnia control activity (after emergence, control effect %) (zinnia; dose 37.5 g a.i./hm^2) | Zinnia control activity (after emergence, control effect %) (zinnia; dose 150 g a.i./hm^2) | Zinnia control activity (after emergence, control effect %) (zinnia; dose 600 g a.i./hm^2) | Piemarker control activity (after emergence, control effect %) (piemarker; [1]) | Piemarker control activity (after emergence, control effect %) (piemarker; [2]) | Piemarker control activity (after emergence, control effect %) (piemarker; [3]) | Barnyard grass control activity (after emergence, control effect %) (barnyard grass; [1]) | Barnyard grass control activity (after emergence, control effect %) (barnyard grass; [2]) | Barnyard grass control activity (after emergence, control effect %) (barnyard grass; [3]) | Green bristlegrass control activity (after emergence, control effect %) (green bristlegrass; [1]) | Green bristlegrass control activity (after emergence, control effect %) (green bristlegrass; [2]) | Green bristlegrass control activity (after emergence, control effect %) (green bristlegrass; [3]) |
| --- | --- | --- | --- | --- | --- | --- | --- | --- | --- | --- | --- | --- |
| Cn1nnnc1N(C(=O)/C=C/c1ccccc1)C(=O)c1ccc(C(F)(F)F)cc1S(C)(=O)=O [Compound 1-1] | 100% | 100% | 100% | 100% | 100% | 100% |  |  |  |  |  |  |
| Cn1nnnc1N(C(=O)/C=C/c1ccc2c(c1)OCO2)C(=O)c1ccc(C(F)(F)F)cc1S(C)(=O)=O [Compound 1-8] | 90% | 95% | 100% | 100% | 100% | 100% |  |  |  |  |  |  |
| Cc1c(S(C)(=O)=O)ccc(C(=O)N(C(=O)/C=C/c2ccccc2)c2nnnn2C)c1Cl [Compound 1-19] | 95% | 95% | 100% | 90% | 90% | 98% |  |  |  |  |  |  |
| COCc1c(S(C)(=O)=O)ccc(C(=O)N(C(=O)/C=C/c2ccccc2)c2nnnn2C)c1Cl [Compound 1-24] | 100% | 100% | 100% | 100% | 100% | 100% | 95% | 95% | 100% |  |  |  |
| COc1c(S(C)(=O)=O)ccc(C(=O)N(C(=O)/C=C/c2ccccc2)c2nnnn2C)c1C [Compound 1-95] | 100% | 100% | 100% |  |  |  |  |  |  |  |  |  |
| Cc1c(C(=O)N(C(=O)/C=C/c2ccccc2)c2nnnn2C)ccc(S(C)(=O)=O)c1OCC1CCCO1 (stereo not drawn) [Compound 1-100] |  |  |  |  |  |  | 100% | 100% | 100% |  |  |  |
| CCCOc1c(S(C)(=O)=O)ccc(C(=O)N(C(=O)/C=C/c2ccccc2)c2nnnn2C)c1C [Compound 1-296] |  |  |  |  |  |  | 100% | 100% | 100% |  |  |  |
| Cc1c(C(=O)N(C(=O)C2=CCCCC2)c2nnnn2C)ccc(S(C)(=O)=O)c1OCC(F)(F)F [Compound 2-13] | 100% | 100% | 100% |  |  |  | 80% | 100% | 100% |  |  |  |
| Cc1c(C(=O)N(C(=O)C2=CCCC2)c2nnnn2C)ccc(S(C)(=O)=O)c1OCC(F)(F)F [Compound 2-15] | 100% | 100% | 100% |  |  |  | 85% | 100% | 100% | 90% | 100% | 100% |
| COCCOc1c(S(C)(=O)=O)ccc(C(=O)N(C(=O)C2=CCCCC2)c2nnnn2C)c1C [Compound 2-19] |  |  |  |  |  |  | 90% | 100% | 100% |  |  |  |
| Cc1c(S(C)(=O)=O)ccc(C(=O)N(C(=O)C2=CCCCC2)c2nnnn2C)c1Cl [Compound 2-97] | 100% | 100% | 100% | 95% | 100% | 100% | 90% | 95% | 100% | 80% | 95% | 100% |
| COCc1c(S(C)(=O)=O)ccc(C(=O)N(C(=O)C2=CCCCC2)c2nnnn2C)c1Cl [Compound 2-103] | 90% | 95% | 100% | 95% | 100% | 100% | 80% | 90% | 100% | 80% | 90% | 95% |
| COCc1c(S(C)(=O)=O)ccc(C(=O)N(C(=O)C2=CCCC2)c2nnnn2C)c1Cl [Compound 2-105] |  |  |  |  |  |  | 90% | 90% | 100% |  |  |  |
| COCc1c(S(C)(=O)=O)ccc(C(=O)N(C(=O)C2CC=CC2)c2nnnn2C)c1Cl [Compound 2-106] | 100% | 100% | 100% |  |  |  |  |  |  |  |  |  |
| Cn1nnnc1N(C(=O)C1=CCCCC1)C(=O)c1ccc(C(F)(F)F)cc1S(C)(=O)=O [Compound 2-265] | 95% | 100% | 100% | 90% | 95% | 95% | 95% | 95% | 95% | 80% | 90% | 95% |
| Cn1nnnc1N(C(=O)C1=CCCC1)C(=O)c1ccc(C(F)(F)F)cc1S(C)(=O)=O [Compound 2-266] | 95% | 98% | 100% | 90% | 95% | 100% | 85% | 90% | 95% | 90% | 95% | 100% |
| Cn1nnnc1N(C(=O)C1=CCCCC1)C(=O)c1ccc(S(C)(=O)=O)cc1Cl [Compound 2-269] |  |  |  | 90% | 95% | 100% | 80% | 90% | 95% |  |  |  |
| COCCOCc1c(S(C)(=O)=O)ccc(C(=O)N(C(=O)C2=CCCCC2)c2nnnn2C)c1Cl [Compound 2-270] |  |  |  | 90% | 98% | 100% | 90% | 95% | 100% | 90% | 95% | 98% |
